Test results published in article PMC9505670, “The Effect of Short-Chain Fatty Acids on Growth of Cryptosporidium parvum In Vitro” (Microorganisms, 2022).
“And” between values parts separate entries of the source, which are not always exact repeats. Identical values can stand only once. Like-named read-outs stand apart in the source and are kept apart here.

How the values were obtained:
T. gondii [1] = system: T. gondii; design: method as in PMID 17626366; details: cited from earlier work; for IC50: cell monolayers infected and then treated
C. parvum [2] = assay: C. parvum in vitro culture assay, intracellular stages in infected HCT-8 cells; format: cell-based, Cryptosporidium parvum IOWA isolate
Procedure: Growth of C. parvum in cell culture was performed as described previously. Briefly, purified C. parvum IOWA isolate oocysts were washed with phosphate-buffered saline (PBS, pH 7.4) to remove the storage buffer (2.5% w/v aqueous potassium dichromate) and resuspended in RPMI 1640 media supplemented with 0.75% sodium taurocholate and incubated for 30 min at 37 °C. The excystation mixture containing oocysts, oocyst shells and free sporozoites was diluted with RPMI 1640 with 10% fetal bovine serum (FBS). Approximately 1 × 10^5 oocysts and sporozoites were dispensed per well in 24-well plates containing confluent HCT-8 cells. Host cells inoculated with the parasite mixture were incubated for 3 h and subsequently washed with PBS to remove free parasites (those that had not invaded host cells). PBS was replaced with fresh RPMI 1640 with 10% FBS with or without test compounds and the cultures were incubated for 48 h. In addition, RPMI 1640 with 10% FBS supplemented with DMSO (same concentration used with test compounds) was evaluated to determine the effect of inhibition or toxicity on cultures. Culture wells were washed with PBS, and then PBS was replaced by Bouin’s solution. After fixation of cultures, the Bouin solution was removed and decolorized with 70% ethanol, followed by 5 washes with PBS. Culture wells were labeled with an anti-C. parvum fluorescein-labeled monoclonal antibody (C3C3-FITC) and parasites were enumerated via quantitative fluorescent microscopy at 400× magnification using an Olympus IX73 microscope (Waltham, MA, USA). Twenty-four sequential, non-overlapping fields per well were captured as digital images, constituting a representative subsample of the entire well. The parasites were quantified using OpenCFU (https://sourceforge.net/projects/opencfu/, accessed on 4 October 2014) software based on the size of the fluorescing parasites and the parasite-specific fluorescent signal. Data were obtained from four well replicates, and each experiment was repeated at least twice. Dose–effect curves and the median effective concentration (EC50) of each compound alone or in combination was determined using CompuSyn (ComboSyn, Inc., Paramus, NJ, USA, ver. 2.1 for Microsoft Windows) computer software. The EC50 was defined as the concentration required for reducing the number of parasites by 50% compared with the untreated control. […]

E. invadens = system: E. invadens; design: method as in PMID 15659070; details: incubated individually; cited from earlier work
C. parvum sporozoites = assay: SCFA treatment of live sporozoites before inoculation onto HCT-8 cells; format: cell-based, Cryptosporidium parvum; details: for inhibition of sporozoites: 45 min incubation with sporozoites prior to infection of host cell monolayers; for EC50: sporozoites incubated 45 min with SCFA, washed, then 48 h development on HCT-8 cells, read-out: EC50 for Sporozoite Stages
Procedure: Sporozoites were prepared according to You et al., 1998 [15]. Briefly, after excystation, the C. parvum oocysts and sporozoite mixture was filtered through a […] filter using a syringe and centrifuged, washed and counted. Isolated sporozoites were incubated with different SCFAs for 45 min, then washed several times to remove SCFAs before plating on cell monolayers. Sporozoites were then inoculated onto HCT-8 cells and incubated for 3 h. Monolayers were then washed, media was replaced and parasites were allowed to develop for 48 h, as described in the culture assay above. Cells were fixed and labeled and parasitic stages were quantitated as described above.

HCT-8 cells = assay: Compound toxicity for host cell cultures (CellTiter 96 tetrazolium assay); format: cell-based, human
Procedure: (§1) Test compound toxicity for HCT-8 cell cultures was assessed using the CellTiter 96 Non-Radioactive Cell Proliferation/Cytotoxicity assay as recommended by the manufacturer (Promega Corporation, Madison, WI, USA).

[3] = as above; format: cell-based, human; details: human; HDAC inhibitors; 48 h; read-out: Cytotoxicity Concentration (CC50) for HCT-8 Host Cells
Procedure: as §1

Cryptosporidium = system: Cryptosporidium; design: method as in PMID 8917558; details: previously reported; cited from earlier work
apoptosis in HCT-8 cells = assay: Apoptosis assay (Caspase-Glo 3/7); format: cell-based, human; details: 24 h
Procedure: In vitro assays were performed as described above. Briefly, HCT-8 cells were infected with C. parvum and/or treated with 1 mM butyrate for 24 h, after which the cells were analyzed for percent apoptosis. Control wells (uninfected, untreated) were compared with treated wells and infected wells. Apoptosis in HCT-8 cell cultures was measured using a commercially available assay (Promega Corporation, Madison, WI, USA). Caspase-Glo3/7 reagent was added directly to the assay wells.

autophagy in HCT-8 cells = assay: Autophagy assay (autophagosome detection reagent); format: cell-based, human; details: 24 h
Procedure: In vitro assays were performed as described above. Briefly, HCT-8 cells were infected with C. parvum and/or treated with 1 mM butyrate for 24 h, after which the cells were analyzed for […]. Control wells (uninfected, untreated) were compared with treated wells and infected wells. An autophagy assay was used following the recommendation of the manufacturer (Sigma-Aldrich, St. Louis, MO, USA). The medium was removed from the wells and 100 µL of the proprietary autophagosome detection reagent was added directly to each well. The plate was then incubated for 45 min at 37 °C and 5% CO2. The detection reagent was then removed, and each well was washed 3 times with the provided wash buffer before measuring fluorescence (λex = 360/λem = 520 nm) with a microplate reader. The intensity of the fluorescence correlates directly with the amount of autophagy observed.

CpHDAC3 = details: recombinant protein; cited from earlier work
[4] = system: cytokine production in HCT-8 cells; assay: Cytokine production, Luminex 48-plex, HCT-8 supernatants; format: cell-based, human; details: for majority of cytokines in the 48-plex assay (including IL-6 and TNF-α): 48 h treatment, alone or in combination with C. parvum infection
Procedure: For the cytokine assay, the in vitro infection assay was performed as described above. Supernatants from 24-well plates were collected and stored at –80 °C. Luminex multiplex assays were completed by Eve Technologies using the Human Cytokine discovery Array 48-plex Panel (Calgary, AB, Canada).

T. gondii [5] = system: T. gondii; design: method as in PMID 34339265; details: treatment of mice; cited from earlier work
C. parvum [6] = system: C. parvum; design: method as in PMID 24273180; details: cited from earlier work
C. parvum [7] = system: C. parvum; design: method as in PMID 24273180; details: cited from earlier work; remark: listed apart in the source
[8] = HCT-8 cells infected with C. parvum, 48 h treatment, read-out: EC50 for Intracellular Stages
[9] = Cryptosporidium parvum, HCT-8, 48 h, HCT-8 cells infected with C. parvum, 48 h treatment, read-out: EC50 for Intracellular Stages
[10] = C. parvum infected then 1 mM butyrate, 48 h, compared with butyrate alone or infection alone
[11] = HDAC inhibitors, infected HCT-8 cells, 48 h, read-out: EC50 of Intracellular Stages

For O=C(O)CCCc1ccccc1 [4-phenylbuyrate], the “inhibition of T. gondii in vitro” value (T. gondii [1]) is listed as “inhibit”.

For CC(=O)O [Acetate], the EC50 (C. parvum [2]; [8]) is listed as 4000 µM, the “concentration range inhibiting encystment” value (E. invadens) is listed as 6 to 22 mM and the inhibition of sporozoites (C. parvum sporozoites) is listed as “no inhibition”. For the same molecule, the EC50 (C. parvum sporozoites) was greater than 100000 µM and the CC50 (HCT-8 cells) was greater than 200000 µM.

With CCC(=O)CCCCC[C@@H]1NC(=O)[C@H]2CCCCN2C(=O)[C@H]([C@@H](C)CC)NC(=O)[C@H](Cc2cn(OC)c3ccccc23)NC1=O [Apicidin] the EC50 (C. parvum [2]; Cryptosporidium parvum, HCT-8, 48 h, read-out: EC50 of Intracellular Stages, HDAC inhibitors, infected HCT-8 cells, 48 h) was 0.02 µM, the EC50 (C. parvum [2]; read-out: EC50 of Intracellular Stages, HDAC inhibitors, infected HCT-8 cells, 48 h) was 0.04 µM and the CC50 at 48 h [3] was 150 µM. For the same molecule, the “anti-cryptosporidial activity at concentration” value (Cryptosporidium) was 30 ng/mL.

For CCCC(=O)O [Butyrate], the EC50 (C. parvum [2]; [9]) is listed as 4000 to 10000 µM, the EC50 (C. parvum [2]; [8]) is listed as 3000 to 8000 µM and the “concentration range inhibiting encystment” value (E. invadens) is listed as 6 to 22 mM. The inhibition of sporozoites (C. parvum sporozoites) was “inhibited growth”, the EC50 (C. parvum sporozoites; Cryptosporidium parvum) was 2000 µM and the apoptosis (apoptosis in HCT-8 cells; 1.0 mM alone, compared to control, p < 0.05) was “significantly higher percentage of apoptosis”. The apoptosis (apoptosis in HCT-8 cells; C. parvum infection plus treatment 3 h after infection, 1 mM) was “additional increase in apoptosis”, the autophagy (autophagy in HCT-8 cells; 1 mM alone, uninfected cells) was “no difference” and the autophagy (autophagy in HCT-8 cells; cells infected with C. parvum and treated, 1 mM) was “significant decrease in autophagy”. The IC50 (T. gondii [1]) was 1000 to 5000 µM, the “inhibition of T. gondii in vitro” value (T. gondii [1]) was “inhibit” and the “inhibition of CpHDAC3” value (CpHDAC3) was “did not inhibit”. The “majority of cytokines in the 48-plex assay (including IL-6 and TNF-α)” value (from here on “majority of cytokines”) [4] was “not significantly altered”, the IL-1α [4, 10] was “significant increase” and the IL-8 [4, 10] was “significant increase”.

With COc1ccc(Cn2ccc3ccc(C(=O)NO)cc32)cc1 [PCI 34051] the EC50 (C. parvum [2]; [11]) was 0.001 µM and 0.001 to 0.007 µM, the toxicity (HCT-8 cells; below 200 nM) was “no toxicity” and the “majority of cytokines” value [4] was “did not increase cytokine expression”. The “majority of cytokines” value ([4]; listed as PCI 34,051) was “not significantly altered”.

For CCC(=O)O [Propionate], the EC50 (C. parvum [2]; [8]) is given as 3000 to 4000 µM, the “concentration range inhibiting encystment” value (E. invadens) is given as 6 to 22 mM and the inhibition of sporozoites (C. parvum sporozoites) is given as “no inhibition”. It also gave an EC50 (C. parvum sporozoites) greater than 100000 µM.

For CC(/C=C/C(=O)NO)=C\[C@@H](C)C(=O)c1ccc(N(C)C)cc1 [Trichostatin A], the EC50 (C. parvum [2]; [11]) is listed as 0.02 µM, the CC50 (HCT-8 cells; HDAC inhibitors, 48 h, read-out: Cytotoxicity Concentration (CC50) for HCT-8 Host Cells) is listed as greater than 200 µM and the “anti-cryptosporidial activity at concentration” value (Cryptosporidium) is listed as 30 ng/mL.

For CCCC(CCC)C(=O)O [Valproate, reference compound], the EC50 (C. parvum [2]; [9]) was 10000 µM, the inhibition of sporozoites (C. parvum sporozoites) was “no inhibition” and the EC50 (C. parvum sporozoites; Cryptosporidium parvum) was greater than 100000 µM. The IC50 (T. gondii [1]) was 1000 to 5000 µM, the “inhibition of T. gondii in vitro” value (T. gondii [1]) was “inhibit” and the “number of T. gondii cysts in the brains of mice” value (T. gondii [5]) was “reduce the number of T. gondii cysts”.

In the case of O=C(CCCCCCC(=O)Nc1ccccc1)NO [vorinostat], the “efficacy in a mouse model” value (C. parvum [6]) is listed as “efficacy” and the in vitro activity (C. parvum [7]) is listed as “in vitro activity”.
